# Measured values from patent US6184252A, “2-amino-1,3-alkanediol compositions for inducing/stimulating hair growth and/or retarding hair loss” (priority 1996, dated 2001).
# Where two headings read alike, the source gives them in different places.
# Columns and labels:
# Assay type in all cases: cell-based
# [1] = tested on: HaCat cells; experiment: Cell viability in the presence of doxorubicin (XTT kit); conditions: for increase in the number of cells with respect to the control (A): read at 48 hours
# Description: Effect of 2-amino-1,3-octadecanediol and Derivatives Thereof on Cell Viability in the Presence of Doxorubicin
# HaCat cells were cultured as in Example 2.
# (§1) 24 hours after inoculation, the cells were contacted with the various test compounds in a KBM medium (marketed by Clonetics) containing insulin at 5 μg/ml and hydrocortisone at 0.5 μg/ml.
# The cells were cultured in the presence of the 2-amino-1,3-octadecanediol to be tested until evaluation of cell viability.
# Doxorubicin at a concentration of 1 μg/ml was added to the culture medium for 2 hours at the beginning of the experiment.
# (§2) Cell viability was evaluated 48 hours later by measuring the mitochondrial respiration. This was carried out using an XTT kit, marketed by Boehringer, according to the supplier's instructions.
# (§3) The experiment was carried out with the following compounds at a concentration of 50 nM:
# in comparison with the culture medium without alkanediol and without doxorubicin (A) and with a medium containing only doxorubicin (B).
# The results, expressed as percentage, represent the increase in the number of cells with respect to the control (A), namely, with respect to a culture produced under the same conditions in the absence of alkanediol compounds and of doxorubicin.
# [2] = tested on: HaCat cells (cultured keratinocytes); experiment: Proliferative influence on cultured keratinocytes (cell counting with Coulter Counter); conditions: Homo sapiens, 120 h, 5 days, read-out: increase in the number of cells with respect to the control; for activation at 0.0005 µM: 0.5 nM; for activation at 0.005 µM: 5 nM; for activation at 0.05 µM: 50 nM; for activation at 0.5 µM: 500 nM
# Description: Measurement of the Proliferative Influence of 2-amino-1,3-octadecanediol and Derivatives Thereof on Cultured Keratinocytes
# HaCat cells (Boukamp and coworkers, J. Cell Biol., vol. 106, March 1988, 761-771) were cultured in DMEM medium (marketed by Gibco) containing amino acids (mixture of nonessential amino acids) at a concentration of 0.1 mM, penicillin and streptomycin at respective concentrations of 50 International Units per […] and of 50 μg/ml, glutamine at a concentration of 2 mM, sodium pyruvate at a concentration of 1 mM and 10% fetal calf serum. These cells were inoculated at a density of 10,000 cells per well in the 24 wells of plates of the multiwell type (Costar, France). 24 hours after inoculation, the cells were contacted with the various test compounds in a KBM medium (marketed by Clonetics) containing 0.15 mM of calcium ion, insulin at 5 μg/ml, hydrocortisone at 0.5 μg/ml and lipid-free bovine serum albumin at 1 μg/ml.
# Cellular counting was carried out 5 days after the addition of the various ceramides using a cell counter of the Coulter Counter type.
# The various compounds were tested at 0.5 nM, 5 nM, 50 nM and 500 nM.
# The results, expressed as percentage, represent the increase in the number of cells with respect to the control, namely, with respect to a culture produced under the same conditions in the absence of sphinganine.
# [3] = tested on: HaCat cells (cultured keratinocytes); experiment: Cell viability (mitochondrial respiration, XTT kit); conditions: for activation at 0.05 µM: Homo sapiens, HaCaT, read-out: increase in the number of cells with respect to the control (cell viability)
# Description: Measurement of the Effect of 2-amino-1,3-octadecanediol and Derivatives Thereof on Cell Viability
# HaCat cells were cultured as in Example 1.
# (§4) These were then inoculated at a density of 20,000 cells per well in the 24 wells of plates of the multiwell type (Costar, France).
# as §1, §2
# The compounds A, B and C of the above Example 1 were tested at a concentration of 50 nM, as well as a derivative based on sphingenine: N-palmitoylsphingenine marketeed by Sigma (C16H).
# [4] = tested on: hair follicle; experiment: Survival of the hair follicle in vitro; conditions: Homo sapiens, read-out: percentage of surviving follicles
# Description: Viable in vitro hair follicles were prepared according to the technique described in FR-95/08,465, filed Jul. 12, 1995 and assigned to the assignee hereof. From a scalp biopsy, a rather fine strip of scalp was isolated using a scalpel. The adipose tissue surrounding the follicles was removed with microforceps while avoiding damage to the hair bulb. The follicle was cut and removed with a scalpel under a microscope in order to separate it from its epidermal and dermal surroundings. The fragment obtained was maintained in culture in Williams E medium, at 37° C., in a humid atmosphere in the presence of CO2. The survival of the follicles was evaluated each day by counting the living follicles, according to their morphological appearance. The results are reported as percentage of surviving follicles per day. The experiment was carried out employing the following compounds at a concentration of 50 nM: in comparison with the culture medium without alkanediol (A).
# [5] = tested on: HaCat cells (keratinocytes); experiment: Effect on the cell cycle (BrdU incorporation, entry into S phase); conditions: 50 nM; for activation at 0.05 µM: Homo sapiens, HaCaT, read-out: increase in the number of cells which have entered into the S phase with respect to the control
# Description: Measurement of the Effect of 2-amino-1,3-octadecanediol and Derivatives Thereof on the Cell Cycle
# HaCat cells were cultured as above.
# as §4
# 24 hours after inoculation, the cells were contacted with the various test compounds in a KBM medium (marketed by Clonetics) containing insulin at 5 μg/ml and hydrocortisone at 0.5 μg/ml and 5-bromo-2'-deoxyuridine (BrdU) at 1 μM.
# […] This was carried out using a BrdU fast kit, marketed by Boehringer, according to the supplier's instructions.
# The compounds A, B and C of the above example were tested at a concentration of 50 nM.
# The results, expressed as percentage, represent the increase in the number of cells which have entered into the S phase with respect to the control, namely, with respect to a culture produced under the same conditions in the absence of alkanediol compounds.
# [6] = tested on: HaCat cells
# Description: Effect of 2-amino-1,3-octadecanediol and Derivatives Thereof on Cell Viability in the Presence of a Compound Based on Sphingenine, N-acetylsphingenine
# The cells were cultured as in Example 5. N-Acetylsphingenine was at a concentration of 10 μM.
# as §3
# in comparison with the culture medium without alkanediol and without N-acetylsphingenine (A) and with a medium containing only N-acetylsphingenine (B).
# The results, expressed as percentage, represent the number of cells with respect to the control (A), namely, with respect to a culture produced under the same conditions in the absence of alkanediol compounds and of N-acetylsphingenine.
# [7] = alkanediol 50 nM in presence of doxorubicin 1 μg/ml for 2 hours
SMILES,activation at 0.0005 µM [2],activation at 0.005 µM [2],activation at 0.05 µM [2],activation at 0.5 µM [2],"viability of the cultured keratinocytes (in words) ([3]; 50 nM, 48 hours)",number of keratinocytes which have entered into the S phase (in words) [5],activation at 0.05 µM ([5]; 72 hours),activation at 0.05 µM ([5]; 96 hours),"increase in the number of cells with respect to the control (A) [1, 7]",further results
"COc1cccc2c1C(=O)c1c(O)c3c(c(O)c1C2=O)C[C@@](O)(C(=O)CO)C[C@@H]3O[C@H]1C[C@H](N)[C@H](O)[C@H](C)O1 [Doxorubicin, reference compound]",,,,,,,,,,"cell viability in the presence of doxorubicin (in words) ([1]; doxorubicin 1 μg/ml for 2 hours, alkanediol 50 nM): caused a decrease in cell viability; increase in the number of cells with respect to the control (A) ([1]; only doxorubicin, 1 μg/ml for 2 hours): -20%"
"CCCCCCCCCCCCCCCC(O)C(CO)NC(=O)CCCCCCC (stereo not drawn) [F, 2-octanoylamino-1,3-octadecanediol]",15%,18%,31%,27%,,,,,,
"CCCCCCCCCCCCCCCCCCCCCCCC(=O)NC(CO)C(O)CCCCCCCCCCCCCCC (stereo not drawn) [D, 2-tetracosanoylamino-1,3-octadecanediol]",22%,27%,33%,42%,,,,,,
"CCCCCCCCCCCCCCCC(O)C(CO)NC(C)=O (stereo not drawn) [E, 2-acetylamino-1,3-octadecanediol]",17%,34%,29%,35%,,,,,,
"CCCCCCCCCCCCCCCC(O)C(CO)NC(=O)C(O)CCCCCCCCCCCCCC (stereo not drawn) [C, 2-N-(2-hydroxyhexadecanoyl)amino-1,3-octadecanediol]",26%,36%,42%,22%,increased the viability of the cultured keratinocytes,increase the number of keratinocytes which have entered into the S phase,17%,43%,+23%,"activation at 0.05 µM ([3]; 50 nM, 48 hours): 20%; viability at 0.05 µM ([4]; 0 h, 50 nM, day 0): 100%; viability at 0.05 µM ([4]; 24 h, 50 nM, day 1): 100%; viability at 0.05 µM ([4]; 120 h, 50 nM, day 5): 100%; viability at 0.05 µM ([4]; 240 h, 50 nM, day 10): 50%; viability at 0.05 µM ([4]; 360 h, 50 nM, day 15): 42%; viability at 0.05 µM ([4]; 480 h, 50 nM, day 20): 25%; viability at 0.05 µM ([4]; 600 h, 50 nM, day 25): 0%"
CCCCCCCCCCCCC/C=C/[C@@H](O)[C@H](CO)NC(C)=O [N-Acetylsphingenine],,,,,,,,,,"cell viability in the presence of N-acetylsphingenine (in words) ([6]; N-acetylsphingenine 10 μM, alkanediol 50 nM): caused a decrease in cell viability; number of cells with respect to the control (A) ([6]; human, hacat cells, 48 h, 10 µM): 57%"
"CCCCCCCC/C=C\CCCCCCCC(=O)NC(CO)C(O)CCCCCCCCCCCCCCC (stereo not drawn) [B, 2-oleoylamino-1,3-octadecanediol]",17%,24%,23%,14%,increased the viability of the cultured keratinocytes,increase the number of keratinocytes which have entered into the S phase,43%,51%,+28%,activation at 0.05 µM ([3]; 48 h): 23%; viability at 0.05 µM ([4]; 0 h): 100%; viability at 0.05 µM ([4]; 24 h): 100%; viability at 0.05 µM ([4]; 120 h): 100%; viability at 0.05 µM ([4]; 240 h): 78%; viability at 0.05 µM ([4]; 360 h): 33%; viability at 0.05 µM ([4]; 480 h): 0%; viability at 0.05 µM ([4]; 600 h): 0%
"CCCCCCCCCCCCCCCC(O)C(N)CO (stereo not drawn) [A, 2-amino-1,3-octadecanediol]",7%,15%,17%,30%,increased the viability of the cultured keratinocytes,increase the number of keratinocytes which have entered into the S phase,36%,41%,+25%,"activation at 0.05 µM ([3]; 50 nM, 48 hours): 17%; viability at 0.05 µM ([4]; 0 h, 50 nM, day 0): 100%; viability at 0.05 µM ([4]; 24 h, 50 nM, day 1): 100%; viability at 0.05 µM ([4]; 120 h, 50 nM, day 5): 90%; viability at 0.05 µM ([4]; 240 h, 50 nM, day 10): 20%; viability at 0.05 µM ([4]; 360 h, 50 nM, day 15): 0%; viability at 0.05 µM ([4]; 480 h, 50 nM, day 20): 0%; viability at 0.05 µM ([4]; 600 h, 50 nM, day 25): 0%"
"CCCCCCCCCCCCC/C=C/[C@@H](O)[C@H](CO)NC(=O)CCCCCCCCCCCCCCC [Compound C16H, N-palmitoylsphingenine, reference compound]",,,,,elicited a cytotoxic effect on the cultured cells,,,,,"increase in the number of cells with respect to the control (cell viability) ([3]; 50 nM, 48 hours): -25%"
